Experimental data taken from patent US4337249A, “Modulators of the complement system” (American Cyanamid Company, priority 1981, dated 1982).
Counter-ions that a name gives are not always drawn.

Experiments:
[1] = system: serum complement activity; assay: Guinea Pig Intraperitoneal Test (GPIP); assay type: in vivo; conditions: 200 mg kg i.p., versus simultaneous controls
Description: (§1) An active inhibitor protects C2 from C1 and C4; (ii) Cap 50 Test Here, appropriate amounts of the test compound are added to a pool of guinea pig serum in vitro, after which the undiluted serum capillary tube assay of U.S. Pat. No. 3,876,376 is run. The concentration of compound inhibiting 50% is reported; and (iii) Guinea Pig Intraperitoneal Test (GPIP)--Guinea pigs weighing about 300 g are dosed intraperitoneally (i.p.) with 200 mg kg of the test compound dissolved in saline and adjusted to pH 7-8. Approximately 0.4 ml blood samples, taken by orbital sinus puncture 2 hours and 6 hours after injections, are collected directly into centrifuge tubes; 5 ml blood samples, taken by decapitation 24 hours after injection, are collected directly into beakers. The samples are allowed to clot, centrifuged, and the resultant sera are assayed for complement activity using the capillary complement assay. Percent inhibition are calculated by comparison with simultaneous controls. The results of the GPIP appear in Table I together with results of Test Code 026 and Cap 50.

activated human C1 = target: T1, activated human C1 (Homo sapiens, UniProt P09871); assay: Test Code 026 (C1 inhibitor); assay type: biochemical; conditions: serial twofold dilution assay; higher well number indicates higher activity; protection of human C2 from C1 in presence of C4
T1 sequence (P09871 438-688 limits assumed): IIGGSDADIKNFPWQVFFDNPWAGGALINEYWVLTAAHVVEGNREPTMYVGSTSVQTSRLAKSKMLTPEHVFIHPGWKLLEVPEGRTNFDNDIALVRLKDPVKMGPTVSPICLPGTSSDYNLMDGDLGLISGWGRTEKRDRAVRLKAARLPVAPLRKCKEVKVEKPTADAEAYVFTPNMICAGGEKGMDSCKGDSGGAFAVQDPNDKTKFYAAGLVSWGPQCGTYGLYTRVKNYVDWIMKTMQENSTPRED
T1 sequence (P09871 16-437 limits assumed): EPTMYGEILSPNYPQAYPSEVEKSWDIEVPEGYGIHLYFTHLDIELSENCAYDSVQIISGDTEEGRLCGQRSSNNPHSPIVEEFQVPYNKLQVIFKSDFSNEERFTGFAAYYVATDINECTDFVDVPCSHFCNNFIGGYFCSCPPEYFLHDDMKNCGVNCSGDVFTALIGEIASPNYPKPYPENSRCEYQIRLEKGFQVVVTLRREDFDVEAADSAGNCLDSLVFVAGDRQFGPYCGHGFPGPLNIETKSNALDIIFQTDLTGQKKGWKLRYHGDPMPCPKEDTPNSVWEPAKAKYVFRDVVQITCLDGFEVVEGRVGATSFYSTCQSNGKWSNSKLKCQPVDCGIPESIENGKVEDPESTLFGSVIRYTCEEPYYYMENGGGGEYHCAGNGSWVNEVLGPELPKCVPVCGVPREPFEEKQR
Description: as §1

[2] = system: complement in pool of guinea pig serum; assay: Cap 50 Test (undiluted serum capillary tube assay); assay type: biochemical
Description: as §1

Q: What does the source list for `O=C(C=Cc1ccc(OS(=O)(=O)O)c(OS(=O)(=O)O)c1)N[C@@H]1O[C@H](COS(=O)(=O)O)[C@@H](O[C@H]2O[C@H](COS(=O)(=O)O)[C@@H](OS(=O)(=O)O)[C@H](OS(=O)(=O)O)[C@H]2OS(=O)(=O)O)[C@H](OS(=O)(=O)O)[C@H]1OS(=O)(=O)O` [N-(4-O-α-D-Glucopyranosyl-β-D-glucopyranosyl)-3,4-dihydroxycinnamamide, nonakis (H-sulfate), (nonaester), nonasodium salt]?
A: In vivo Activity (Guinea pig % Inhibition) Intraperitoneal, 2 hours ([1]; serum 2 hours after injection): 63 % Inhibition; In vivo Activity (Guinea pig % Inhibition) Intraperitoneal, 6 hours ([1]; serum 6 hours after injection): 17 % Inhibition; In vivo Activity (Guinea pig % Inhibition) Intraperitoneal, 24 hours ([1]; serum 24 hours after injection): 2 % Inhibition; In vitro Activity C1 026 Wells (activated human C1): 8 (9) Wells; In vitro Activity Cap 50 (concentration of compound inhibiting 50%) [2]: 304
